Experimental data taken from PMC11078746 (Nature, 2024).
Where “and” joins values, the source holds several entries; their conditions need not be identical. Equal values may be shown once. Read-outs that look alike come from different tables or passages of the source. One block for each compound: values may come before it.

Tests used:
LOVO [1] = assay: 4 day proliferation assay (CellTiter-Glo); details: Homo sapiens, 96 h, read-out: 4 day assay GI50
HEC1B = assay: CFA 10-14 day clonogenic assay; format: cell-based; details: Homo sapiens, HEC-1B
HEC251 = assay: 4 day proliferation assay (CellTiter-Glo); details: Homo sapiens, HEC-251, 96 h, read-out: 4 day assay GI50
Mouse unbound fraction = format: in vitro ADME; details: blood
LS513 = assay: CFA 10-14 day clonogenic assay; format: cell-based; details: Homo sapiens, LS-513
MSI CDX and PDX models = assay: In vivo screen in a panel of CDX and PDX models; design: species or system mouse; details: 60 or 120 mg per kg once daily
Experimental: All animal studies were conducted in accordance with ethics and procedures covered by permit BS-2275 and BS-1975 issued by the Kantonales Veterinäramt Basel-Stadt and in strict adherence to guidelines of the Eidgenössisches Tierschutzgesetz and the Eidgenössische Tierschutzverordnung, Switzerland. All animal studies were approved by the internal ethics committee. All animals had access to food and water ad libitum and were identified with transponders. They were housed in a specific-pathogen-free facility in IVC racks under a 12 h–12 h light–dark cycle. To establish cell-line-derived xenograft models, 6–7-week-old female athymic nude (Crl:NU(NCr)-Foxn1^nu) or SCID-BEIGE (CB17.Cg-PrkdcscidLystbg-J/Crl) mice from Charles River were engrafted subcutaneously with 5 million tumour cells in HBSS (H6648, Sigma-Aldrich). For SNU-407, Lovo, IM95, RL95.2, Ishikawa and IGROV-1, the cells were concentrated in 50% Matrigel (354234, Corning). Patient-derived xenografts were induced and expanded by transplantation as previously described. […] For the efficacy experiment, mice were randomized into groups (n = 5–6) for a mean tumour size of 100–150 mm^3. […] Blood samples were collected on day 7 and 91. […] Tumour responses are reported with the measures of tumour volumes from the treatment start. […] Animals were randomized (n = 3) and tumour samples were collected at 0, 1, 4, 8 and 24 h on the first day and then collected 4 h after the last treatment on day 3, 8, 10, 14 (including a 24 h timepoint), 17 and 21. Tumours were excised, weighed, either frozen in liquid nitrogen and cryogenic dry pulverized with the CryoPrep system (model CP-02, Covaris) or processed to FFPE after fixation. […] On day 12, blood samples were collected for PK analysis. On the last day (3 h after the last treatment), tumours were excised, weighed, frozen in liquid nitrogen and cryogenic dry pulverized for PD analysis.

[2] = system: microsatellite-stable (MSS) cells; assay: Clonogenic assay, 10-to-14-day; details: 10-to-14-day clonogenic assay
LOVO [3] = assay: CFA 10-14 day clonogenic assay; format: cell-based; details: Homo sapiens
EN = assay: 4 day proliferation assay (CellTiter-Glo); details: Homo sapiens, 96 h, read-out: 4 day assay GI50
LS411N = assay: 4 day proliferation assay (CellTiter-Glo)
hERG = hERG (Homo sapiens, UniProt Q12809); assay: hERG binding (patch clamp)
[4] = Compound 3 blood PK in SW48 tumour-bearing mice; format: in vivo, mouse
Experimental: All animal studies were conducted in accordance with ethics and procedures covered by permit BS-2275 and BS-1975 issued by the Kantonales Veterinäramt Basel-Stadt and in strict adherence to guidelines of the Eidgenössisches Tierschutzgesetz and the Eidgenössische Tierschutzverordnung, Switzerland. All animal studies were approved by the internal ethics committee. All animals had access to food and water ad libitum and were identified with transponders. They were housed in a specific-pathogen-free facility in IVC racks under a 12 h–12 h light–dark cycle. To establish cell-line-derived xenograft models, 6–7-week-old female athymic nude (Crl:NU(NCr)-Foxn1^nu) or SCID-BEIGE (CB17.Cg-PrkdcscidLystbg-J/Crl) mice from Charles River were engrafted subcutaneously with 5 million tumour cells in HBSS (H6648, Sigma-Aldrich). For SNU-407, Lovo, IM95, RL95.2, Ishikawa and IGROV-1, the cells were concentrated in 50% Matrigel (354234, Corning). Patient-derived xenografts were induced and expanded by transplantation as previously described. […]. For the efficacy experiment, mice were randomized into groups (n = 5–6) for a mean tumour size of 100–150 mm^3. […] Blood samples were collected on day 7 and 91. […]. Tumour responses are reported with the measures of tumour volumes from the treatment start. […]. Animals were randomized (n = 3) and tumour samples were collected at 0, 1, 4, 8 and 24 h on the first day and then collected 4 h after the last treatment on day 3, 8, 10, 14 (including a 24 h timepoint), 17 and 21. Tumours were excised, weighed, either frozen in liquid nitrogen and cryogenic dry pulverized with the CryoPrep system (model CP-02, Covaris) or processed to FFPE after fixation. […]. On day 12, blood samples were collected for PK analysis. On the last day (3 h after the last treatment), tumours were excised, weighed, frozen in liquid nitrogen and cryogenic dry pulverized for PD analysis. […]. […]

hERG, sequence (Q12809 whole entry): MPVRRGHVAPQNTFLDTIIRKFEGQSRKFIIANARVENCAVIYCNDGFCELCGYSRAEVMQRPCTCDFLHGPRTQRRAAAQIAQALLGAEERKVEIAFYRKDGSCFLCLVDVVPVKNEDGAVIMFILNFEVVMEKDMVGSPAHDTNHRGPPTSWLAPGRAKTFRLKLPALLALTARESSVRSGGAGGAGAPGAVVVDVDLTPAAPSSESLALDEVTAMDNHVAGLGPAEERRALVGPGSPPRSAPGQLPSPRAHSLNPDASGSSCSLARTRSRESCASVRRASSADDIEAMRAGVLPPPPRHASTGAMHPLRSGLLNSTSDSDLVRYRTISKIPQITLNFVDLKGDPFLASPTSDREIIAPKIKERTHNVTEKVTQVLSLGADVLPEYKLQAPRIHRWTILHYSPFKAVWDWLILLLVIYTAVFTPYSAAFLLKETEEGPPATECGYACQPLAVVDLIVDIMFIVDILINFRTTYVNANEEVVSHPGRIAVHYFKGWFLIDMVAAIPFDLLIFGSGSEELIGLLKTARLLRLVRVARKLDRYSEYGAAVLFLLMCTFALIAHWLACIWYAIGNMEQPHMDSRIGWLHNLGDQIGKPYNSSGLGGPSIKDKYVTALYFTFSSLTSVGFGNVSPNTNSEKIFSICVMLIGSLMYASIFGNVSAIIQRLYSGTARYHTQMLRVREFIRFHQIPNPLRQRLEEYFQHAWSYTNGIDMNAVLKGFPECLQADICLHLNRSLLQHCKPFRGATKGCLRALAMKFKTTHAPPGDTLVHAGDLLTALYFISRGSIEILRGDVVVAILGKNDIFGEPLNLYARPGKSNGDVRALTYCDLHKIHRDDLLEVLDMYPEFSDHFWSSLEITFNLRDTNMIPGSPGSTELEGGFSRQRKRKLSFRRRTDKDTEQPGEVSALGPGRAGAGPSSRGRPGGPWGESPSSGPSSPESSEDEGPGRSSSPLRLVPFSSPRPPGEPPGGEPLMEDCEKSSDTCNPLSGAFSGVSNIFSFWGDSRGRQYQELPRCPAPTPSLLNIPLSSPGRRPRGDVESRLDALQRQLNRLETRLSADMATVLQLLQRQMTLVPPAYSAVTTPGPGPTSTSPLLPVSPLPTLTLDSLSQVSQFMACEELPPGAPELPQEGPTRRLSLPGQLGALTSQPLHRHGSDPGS

SMILES: CCc1c(N2CCN(C(=O)c3ncnc(C)c3O)CC2)c(=O)n2nc(C3=CCOCC3)nc2n1CC(=O)Nc1ccc(C(F)(F)F)cc1Cl [HRO761]
GI50 (LOVO [1]): 1.25 µM | GI50 (HEC1B): ≥ 10 µM | GI50 (HEC251): ≥ 10 µM | fraction unbound (Mouse unbound fraction): 0.193 | GI50 (LS513): ≥ 10 µM | complete responses (MSI CDX and PDX models): 9% | disease control rate (MSI CDX and PDX models): approximately 70% | partial responses (MSI CDX and PDX models): 30% | stable diseases (MSI CDX and PDX models): 35% | effect on viability [2]: no effect | GI50 (LOVO [3]): 0.073 µM | GI50 (EN): ≥ 10 µM | GI50 (LS411N; Homo sapiens, LS-411N, 96 h, read-out: 4 day assay GI50, LS411N): 0.147 µM | GI50 (LS411N; read-out: 4 day assay GI50, LS411N): 0.257 µM | IC50 (hERG): > 30 µM

concentration at 4 h ([4]; 15mg/kg BID, 1 h, single mouse, listed as WRNi #4, read-out: Total blood concentration): 680 nM and 520 nM | concentration at 4 h ([4]; 15mg/kg BID, 2 h, single mouse, listed as WRNi #4, read-out: Total blood concentration): 110 nM and 260 nM and 360 nM | concentration at 4 h ([4]; 15mg/kg BID, 4 h, single mouse, listed as WRNi #4, read-out: Total blood concentration): 100 nM and 200 nM | concentration at 4 h ([4]; 15mg/kg BID, 8 h, single mouse, listed as WRNi #4, read-out: Total blood concentration): 80 nM and 130 nM and 220 nM | concentration at 4 h ([4]; 15mg/kg BID, last day of the efficacy experiment, 0.5 h post treatment, single mouse, listed as WRNi #4, read-out: Total blood concentration): 450 nM and 470 nM and 950 nM | concentration at 4 h ([4]; 50mg/kg BID, 0.5 h, single mouse, listed as WRNi #4, read-out: Total blood concentration): 8660 nM and 6870 nM | concentration at 4 h ([4]; 50mg/kg BID, 1 h, single mouse, listed as WRNi #4, read-out: Total blood concentration): 5090 nM and 4750 nM | concentration at 4 h ([4]; 50mg/kg BID, 2 h, single mouse, listed as WRNi #4, read-out: Total blood concentration): 1600 nM and 2410 nM | concentration at 4 h ([4]; 50mg/kg BID, 4 h, single mouse, listed as WRNi #4, read-out: Total blood concentration): 470 nM and 240 nM and 860 nM | concentration at 4 h ([4]; 50mg/kg BID, 8 h, single mouse, listed as WRNi #4, read-out: Total blood concentration): 100 nM and 210 nM and 230 nM | concentration at 4 h ([4]; 150mg/kg BID, 0.5 h, single mouse, listed as WRNi #4, read-out: Total blood concentration): 23940 nM and 28210 nM | concentration at 4 h ([4]; 150mg/kg BID, 1 h, single mouse, listed as WRNi #4, read-out: Total blood concentration): 13050 nM and 11280 nM | concentration at 4 h ([4]; 150mg/kg BID, 2 h, single mouse, listed as WRNi #4, read-out: Total blood concentration): 7350 nM and 7410 nM | concentration at 4 h ([4]; 150mg/kg BID, 4 h, single mouse, listed as WRNi #4, read-out: Total blood concentration): 3220 nM and 720 nM and 1060 nM | concentration at 4 h ([4]; 150mg/kg BID, 8 h, single mouse, listed as WRNi #4, read-out: Total blood concentration): 460 nM and 210 nM and 390 nM | concentration at 0.5 h ([4]; female, mouse, whole blood, oral, 15 mg/kg, 15mg/kg BID, 0.5 h, read-out: Mean total blood concentration): 620 nM | concentration at 1 h ([4]; female, mouse, whole blood, oral, 15 mg/kg, 15mg/kg BID, 1 h, read-out: Mean total blood concentration): 680 nM | concentration at 1 h ([4]; female, mouse, whole blood, oral, 15 mg/kg, 15mg/kg BID, 1 h, single mouse, read-out: Total blood concentration): 840 nM | concentration at 2 h ([4]; female, mouse, whole blood, oral, 15 mg/kg, 15mg/kg BID, 2 h, read-out: Mean total blood concentration): 240 nM | concentration at 4 h ([4]; female, mouse, whole blood, oral, 15 mg/kg, 15mg/kg BID, 4 h, read-out: Mean total blood concentration): 130 nM | concentration at 4 h ([4]; female, mouse, whole blood, oral, 15 mg/kg, 15mg/kg BID, 4 h, single mouse, read-out: Total blood concentration): 100 nM | concentration at 8 h ([4]; female, mouse, whole blood, oral, 15 mg/kg, 15mg/kg BID, 8 h, read-out: Mean total blood concentration): 140 nM | concentration at 0.5 h ([4]; female, mouse, whole blood, oral, 50 mg/kg, 50mg/kg BID, 0.5 h, read-out: Mean total blood concentration): 7340 nM | concentration at 0.5 h ([4]; female, mouse, whole blood, oral, 50 mg/kg, 50mg/kg BID, 0.5 h, single mouse, read-out: Total blood concentration): 6500 nM | concentration at 1 h ([4]; female, mouse, whole blood, oral, 50 mg/kg, 50mg/kg BID, 1 h, read-out: Mean total blood concentration): 4820 nM | concentration at 1 h ([4]; female, mouse, whole blood, oral, 50 mg/kg, 50mg/kg BID, 1 h, single mouse, read-out: Total blood concentration): 4620 nM | concentration at 2 h ([4]; female, mouse, whole blood, oral, 50 mg/kg, 50mg/kg BID, 2 h, read-out: Mean total blood concentration): 2060 nM | concentration at 2 h ([4]; female, mouse, whole blood, oral, 50 mg/kg, 50mg/kg BID, 2 h, single mouse, read-out: Total blood concentration): 2180 nM | concentration at 4 h ([4]; female, mouse, whole blood, oral, 50 mg/kg, 50mg/kg BID, 4 h, read-out: Mean total blood concentration): 520 nM | concentration at 8 h ([4]; female, mouse, whole blood, oral, 50 mg/kg, 50mg/kg BID, 8 h, read-out: Mean total blood concentration): 180 nM | concentration at 0.5 h ([4]; female, mouse, whole blood, oral, 150 mg/kg, 150mg/kg BID, 0.5 h, read-out: Mean total blood concentration): 22900 nM | concentration at 0.5 h ([4]; female, mouse, whole blood, oral, 150 mg/kg, 150mg/kg BID, 0.5 h, single mouse, read-out: Total blood concentration): 16500 nM | concentration at 1 h ([4]; female, mouse, whole blood, oral, 150 mg/kg, 150mg/kg BID, 1 h, read-out: Mean total blood concentration): 14700 nM | concentration at 1 h ([4]; female, mouse, whole blood, oral, 150 mg/kg, 150mg/kg BID, 1 h, single mouse, read-out: Total blood concentration): 19700 nM | concentration at 2 h ([4]; female, mouse, whole blood, oral, 150 mg/kg, 150mg/kg BID, 2 h, read-out: Mean total blood concentration): 8330 nM | concentration at 2 h ([4]; female, mouse, whole blood, oral, 150 mg/kg, 150mg/kg BID, 2 h, single mouse, read-out: Total blood concentration): 10200 nM | concentration at 4 h ([4]; female, mouse, whole blood, oral, 150 mg/kg, 150mg/kg BID, 4 h, read-out: Mean total blood concentration): 1670 nM | concentration at 8 h ([4]; female, mouse, whole blood, oral, 150 mg/kg, 150mg/kg BID, 8 h, read-out: Mean total blood concentration): 350 nM
SMILES: CCc1c(N2CCN(C(=O)c3ncccc3O)CC2)c(=O)n2nc(C3=CCOCC3)nc2n1CC(=O)Nc1ccc(C(F)(F)F)cc1C [compound 3]
